For the assay, the target named is T1, human plasma kallikrein (Homo sapiens, UniProt P03952).
T1 construct: purchased Abcam
Description: In vitro enzyme inhibition of human plasma kallikrein (Pro-Phe-Arg-AMC cleavage). The format is biochemical. As to conditions: human Plasma Kallikrein (Abcam), substrate Pro-Phe-Arg-AMC, 37° C., Tris-HCl pH 7.5; read-out: hPK IC50. The protocol: The ability of the compounds disclosed herein to inhibit human plasma kallikrein activity was quantified according to the procedures below.
A 10 mM solution of the test compound was made in DMSO. This solution was serially diluted 1:5 in DMSO to yield 2000, 400, 80, 16, 3.2, 0.64, 0.128, 0.0256 and […] compound test solutions. A control tube containing only DMSO is included. 16 μL of each compound test solution was combined with 384 μL of assay buffer (50 mM Tris-HCl pH 7.5, 150 mM NaCl, 0.01% Triton X-100) to yield a “4× test compound buffer stock”. Separately, a 40 nM solution of human Plasma Kallikrein (Abcam) and a 93.6 μM solution Pro-Phe-Arg-AMC (Bachem) were made using assay buffer. These solutions are hereby referred to as 4× hPK and 2×PFR-AMC, respectively.
60 μL of each 4× test compound buffer stock was combined with 60 μL of 4× hPK to yield 120 μL of “2× test compound buffer stock/2× hPK”. 50 μL was removed from this mixture and placed into duplicate wells on a Microfluor 1Black U-bottom microtiter plate (Thermo Scientific). This plate was incubated for 5 minutes at 37° C. To each well, 50 μL of pre-warmed 2×PFR-AMC was added to start the enzymatic reaction. Cleavage of PFR-AMC was monitored in a Biotek Synergy H4 reader set at 37° C. Readings are taken every 43 seconds for 1 hour. The highest mean velocity over 20 reads (˜15 minutes) is used to calculate the IC50. The IC50 is calculated using the Gen5 (Biotek Instruments).
The ability of the compounds in Table 4 to inhibit human plasma kallikrein activity was determined.

Bounds are passed on as bounds.

T1 sequence (P03952 391-638 limits assumed): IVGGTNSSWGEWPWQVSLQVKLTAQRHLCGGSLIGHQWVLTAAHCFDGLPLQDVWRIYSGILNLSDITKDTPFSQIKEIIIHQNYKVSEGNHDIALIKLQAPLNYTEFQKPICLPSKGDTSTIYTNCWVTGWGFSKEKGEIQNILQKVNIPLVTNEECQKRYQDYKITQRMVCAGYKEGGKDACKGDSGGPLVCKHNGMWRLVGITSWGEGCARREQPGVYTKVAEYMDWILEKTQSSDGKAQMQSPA
T1 sequence (P03952 20-390 partner limits assumed): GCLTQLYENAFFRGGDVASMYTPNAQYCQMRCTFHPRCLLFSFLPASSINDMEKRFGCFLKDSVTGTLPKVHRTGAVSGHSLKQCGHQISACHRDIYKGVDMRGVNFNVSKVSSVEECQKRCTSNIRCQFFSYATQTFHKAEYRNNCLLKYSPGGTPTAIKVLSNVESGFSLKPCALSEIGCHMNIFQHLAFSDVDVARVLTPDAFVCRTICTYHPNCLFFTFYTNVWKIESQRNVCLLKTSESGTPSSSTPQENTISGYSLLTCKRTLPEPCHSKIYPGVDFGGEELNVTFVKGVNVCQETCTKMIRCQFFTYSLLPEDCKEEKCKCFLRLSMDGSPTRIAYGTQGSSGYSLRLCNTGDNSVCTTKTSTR

Consider `Clc1cnc2ccc(Cc3ccc4onc(NCc5cnc6[nH]cc(Cl)c6c5)c4c3)cc2c1` [Example 1, N-((3-chloro-1H-pyrrolo[2,3-b]pyridin-5-yl)methyl)-5-((3-chloroquinolin-6-yl)methyl)benzo[d]isoxazol-3-amine], for which the concentration for half-maximal inhibition (IC50) (usually the concentration that inhibits the measured activity by half) is 100 to 1000 nM.
`Cn1nc(NCc2cnc3[nH]cc(Cl)c3c2)c2cc(Cc3ccc4ncc(Cl)cc4c3)ccc21` [Example 2, N-((3-chloro-1H-pyrrolo[2,3-b]pyridin-5-yl)methyl)-5-((3-chloroquinolin-6-yl)methyl)-1-methyl-1H-indazol-3-amine]: the IC50 was 100 to 1000 nM.
Consider `Clc1cnc2ccc(Cc3ccc4[nH]nc(NCc5cnc6[nH]cc(Cl)c6c5)c4c3)cc2c1` [Example 3, N-((3-chloro-1H-pyrrolo[2,3-b]pyridin-5-yl)methyl)-5-((3-chloroquinolin-6-yl)methyl)-1H-indazol-3-amine], for which the IC50 fell in the range of 100 to 1000 nM.
Consider `Cc1cc(N)nc(C)c1CNc1nccc2nc(Cc3ccc4ncc(Cl)cc4c3)[nH]c12` [Example 4, N-((6-amino-2,4-dimethylpyridin-3-yl)methyl)-2-((3-chloroquinolin-6-yl)methyl)-3H-imidazo[4,5-c]pyridin-4-amine], for which the IC50 lay within 1000 to 10000 nM.
As for `Fc1cc2[nH]cc(Cl)c2cc1CNc1ncnc2nc(Cc3ccc4ncc(Cl)cc4c3)[nH]c12` [Example 5], the IC50 is no more than 100 nM.
The result for `Clc1cnc2ccc(Cc3nc4ncnc(NCc5n[nH]c6ccc(Cl)cc56)c4[nH]3)cc2c1` [Example 6, N-((5-chloro-1H-indazol-3-yl)methyl)-8-((3-chloroquinolin-6-yl)methyl)-7H-purin-6-amine] reads no more than 100 nM; that for `Fc1c(CNc2ncnc3nc(Cc4ccc5ncc(Cl)cc5c4)[nH]c23)ccc2[nH]cc(Cl)c12` [Example 7, N-((3-chloro-4-fluoro-1H-indol-5-yl)methyl)-8-((3-chloroquinolin-6-yl)methyl)-7H-purin-6-amine], no more than 100 nM; that for `Clc1cnc2ccc(Cc3nc4ncnc(NCc5cnc6[nH]cc(Cl)c6c5)c4[nH]3)cc2c1` [Example 8, N-((3-chloro-1H-pyrrolo[2,3-b]pyridin-5-yl)methyl)-8-((3-chloroquinolin-6-yl)methyl)-7H-purin-6-amine], no more than 100 nM.
In the case of `Cc1cc(N)nc(C)c1CNc1ncnc2cn(Cc3ccc4ncc(Cl)cc4c3)nc12` [Example 9, N-((6-amino-2,4-dimethylpyridin-3-yl)methyl)-2-((3-chloroquinolin-6-yl)methyl)-2H-pyrazolo[4,3-d]pyrimidin-7-amine], the IC50 is no more than 100 nM.
As to `Cc1cc(N)nc(C)c1CNc1ncnc2nc(Cc3ccc4ncc(C(F)(F)F)cc4c3)[nH]c12` [Example 10, N-((6-amino-2,4-dimethylpyridin-3-yl)methyl)-8-((3-(trifluoromethyl)quinolin-6-yl)methyl)-7H-purin-6-amine], the half-inhibitory concentration (IC50) is no more than 100 nM.
Regarding `Fc1cc2[nH]cc(Cl)c2cc1CNc1ncnc2nc(Cc3ccc4ncc(C(F)(F)F)cc4c3)[nH]c12` [Example 11, N-((3-chloro-6-fluoro-1H-indol-5-yl)methyl)-8-((3-(trifluoromethyl)quinolin-6-yl)methyl)-7H-purin-6-amine], the IC50 was no more than 100 nM.
The result for `FC(F)(F)c1cnc2ccc(Cc3nc4ncnc(NCc5n[nH]c6ccc(Cl)cc56)c4[nH]3)cc2c1` [Example 12, N-((5-chloro-1H-indazol-3-yl)methyl)-8-((3-(trifluoromethyl)quinolin-6-yl)methyl)-7H-purin-6-amine] reads no more than 100 nM; that for `Fc1c(CNc2ncnc3nc(Cc4ccc5ncc(C(F)(F)F)cc5c4)[nH]c23)ccc2[nH]cc(Cl)c12` [Example 13, N-((3-chloro-4-fluoro-1H-indol-5-yl)methyl)-8-((3-(trifluoromethyl)quinolin-6-yl)methyl)-7H-purin-6-amine], no more than 100 nM.
As to `Nc1nccc2cc(CNc3ncnc4nc(Cc5ccc6ncc(C(F)(F)F)cc6c5)[nH]c34)ccc12` [Example 14, 6-(((8-((3-(trifluoromethyl)quinolin-6-yl)methyl)-7H-purin-6-yl)amino)methyl)isoquinolin-1-amine], the IC50 was no more than 100 nM.
In the case of `FC(F)(F)c1cnc2ccc(Cc3nc4ncnc(NCc5cnc6[nH]cc(Cl)c6c5)c4[nH]3)cc2c1` [Example 15, N-((3-chloro-1H-pyrrolo[2,3-b]pyridin-5-yl)methyl)-8-((3-(trifluoromethyl)quinolin-6-yl)methyl)-7H-purin-6-amine], the IC50 is 100 to 1000 nM.
On to `Clc1c[nH]c2ncc(CNc3ncnc4nc(Cc5ccc6ncccc6c5)[nH]c34)cc12` [Example 17, N-((3-chloro-1H-pyrrolo[2,3-b]pyridin-5-yl)methyl)-8-(quinolin-6-ylmethyl)-7H-purin-6-amine], for which the IC50 lay within 100 to 1000 nM.
In the case of `Cc1cc(N)nc(C)c1CNc1ncnc2nc(Cc3ccc4ncc(Cl)cc4c3)[nH]c12` [Example 19, N-((6-amino-2,4-dimethylpyridin-3-yl)methyl)-8-((3-chloroquinolin-6-yl)methyl)-7H-purin-6-amine], the IC50 was no more than 100 nM.
Take `Clc1cnc2ccc(Cc3cc4c(NCc5cnc6[nH]cc(Cl)c6c5)n[nH]c4cn3)cc2c1` [Example 20, N-((3-chloro-1H-pyrrolo[2,3-b]pyridin-5-yl)methyl)-5-((3-chloroquinolin-6-yl)methyl)-1H-pyrazolo[3,4-c]pyridin-3-amine]: the IC50 is 100 to 1000 nM.
As to `O=C(NCc1cc2c(Cl)c[nH]c2cc1F)c1ccc2c(c1)C(c1ccc3ncc(Cl)cc3c1)OC2` (stereo not shown) [Example 21, N-((3-chloro-6-fluoro-1H-indol-5-yl)methyl)-3-(3-chloroquinolin-6-yl)-1,3-dihydroisobenzofuran-5-carboxamide], the 50% inhibitory concentration (IC50) lay within 100 to 1000 nM.

These data come from US20190263818A1 (LifeSci Pharmaceuticals, Inc., priority 2015, published 2019).
